Data published in article PMC8426393, “Interactions of anti-COVID-19 drug candidates with hepatic transporters may cause liver toxicity and affect pharmacokinetics” (Scientific Reports, 2021).
Entries after “also recorded” stand apart in the source; their conditions may differ.

Experiments:
ABCC4/MRP4 = biological target: T1, ABCC4/MRP4 (Homo sapiens, UniProt O15439); assay: MRP4 vesicular transport: ATP-dependent DHEAS uptake into inverted HEK-293 membrane vesicles; format: biochemical; details: DHEAS 0.5 µM, 32 °C, […], HEK-293 vesicles
T1 construct: purchased Solvo Biotechnology (Budapest, Hungary); host or cells: HEK-293 cells
T1 sequence (O15439 1-1325): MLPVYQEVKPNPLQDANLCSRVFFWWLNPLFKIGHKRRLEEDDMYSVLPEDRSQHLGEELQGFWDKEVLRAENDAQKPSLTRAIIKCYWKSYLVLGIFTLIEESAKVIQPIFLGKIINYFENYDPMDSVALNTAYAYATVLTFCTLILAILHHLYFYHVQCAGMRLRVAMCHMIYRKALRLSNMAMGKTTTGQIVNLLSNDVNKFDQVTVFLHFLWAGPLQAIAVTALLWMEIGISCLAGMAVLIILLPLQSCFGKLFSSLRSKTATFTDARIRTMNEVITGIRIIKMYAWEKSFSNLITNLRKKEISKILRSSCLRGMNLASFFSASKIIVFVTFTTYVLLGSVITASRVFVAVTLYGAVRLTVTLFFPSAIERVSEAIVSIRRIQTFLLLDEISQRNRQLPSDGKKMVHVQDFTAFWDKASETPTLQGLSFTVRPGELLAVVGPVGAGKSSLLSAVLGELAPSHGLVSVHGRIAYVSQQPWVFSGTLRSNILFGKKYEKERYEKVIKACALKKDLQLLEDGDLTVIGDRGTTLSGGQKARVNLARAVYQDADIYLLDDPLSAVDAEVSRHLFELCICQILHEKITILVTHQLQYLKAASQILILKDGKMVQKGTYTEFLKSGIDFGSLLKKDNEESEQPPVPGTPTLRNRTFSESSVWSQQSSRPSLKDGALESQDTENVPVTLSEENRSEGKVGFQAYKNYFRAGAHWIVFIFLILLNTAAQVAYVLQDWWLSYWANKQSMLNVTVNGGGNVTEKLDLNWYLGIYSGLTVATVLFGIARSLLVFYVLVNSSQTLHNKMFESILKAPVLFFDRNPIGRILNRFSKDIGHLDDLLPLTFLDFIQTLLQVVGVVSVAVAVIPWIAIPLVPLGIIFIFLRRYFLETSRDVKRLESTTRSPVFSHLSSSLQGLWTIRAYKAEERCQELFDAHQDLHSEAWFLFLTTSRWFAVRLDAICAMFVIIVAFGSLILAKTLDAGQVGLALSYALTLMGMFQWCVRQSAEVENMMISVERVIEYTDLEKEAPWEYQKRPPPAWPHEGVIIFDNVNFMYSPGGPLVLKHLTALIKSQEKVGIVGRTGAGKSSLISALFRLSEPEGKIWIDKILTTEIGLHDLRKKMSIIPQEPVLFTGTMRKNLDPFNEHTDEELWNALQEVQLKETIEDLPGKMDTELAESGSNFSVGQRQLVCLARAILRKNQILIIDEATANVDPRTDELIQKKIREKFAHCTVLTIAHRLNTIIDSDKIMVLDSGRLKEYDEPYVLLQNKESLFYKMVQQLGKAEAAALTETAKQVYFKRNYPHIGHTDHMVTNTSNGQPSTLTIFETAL

[1] = Kaletra 400 mg lopinavir and 100 mg ritonavir in combination; cited from earlier work
MATE1/SLC47A1 = biological target: T2, MATE1/SLC47A1 (Homo sapiens, UniProt Q96FL8); assay: MATE1-dependent metformin uptake in MATE1-overexpressing MDCKII cells; format: cell-based; details: metformin 10 µM, 10 min, 37 °C, MDCKII cells
T2 construct: expressed in transfected cells; host or cells: MDCKII cells, lentiviral transduction
T2 sequence (Q96FL8 1-570): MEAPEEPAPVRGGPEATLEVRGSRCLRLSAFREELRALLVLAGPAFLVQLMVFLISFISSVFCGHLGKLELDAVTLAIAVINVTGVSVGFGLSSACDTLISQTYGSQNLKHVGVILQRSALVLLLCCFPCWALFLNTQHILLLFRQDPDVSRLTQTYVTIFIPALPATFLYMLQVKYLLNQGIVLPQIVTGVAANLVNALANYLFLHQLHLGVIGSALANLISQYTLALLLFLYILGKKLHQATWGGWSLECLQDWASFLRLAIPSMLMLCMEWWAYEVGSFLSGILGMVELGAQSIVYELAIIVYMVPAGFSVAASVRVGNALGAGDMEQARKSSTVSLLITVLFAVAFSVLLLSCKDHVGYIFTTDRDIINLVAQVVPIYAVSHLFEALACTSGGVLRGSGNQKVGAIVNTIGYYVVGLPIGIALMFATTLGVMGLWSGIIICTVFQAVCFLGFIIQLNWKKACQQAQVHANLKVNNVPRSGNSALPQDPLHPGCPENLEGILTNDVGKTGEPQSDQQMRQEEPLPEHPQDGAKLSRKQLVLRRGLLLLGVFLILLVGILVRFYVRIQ

OCT1/SLC22A1 = biological target: T3, OCT1/SLC22A1 (Homo sapiens, UniProt O15245); assay: OCT1-dependent metformin uptake in OCT1-overexpressing HEK-293 cells; format: cell-based
T3 construct: expressed in transfected cells; host or cells: HEK-293 cells, lentiviral transduction
T3 sequence (O15245 1-554): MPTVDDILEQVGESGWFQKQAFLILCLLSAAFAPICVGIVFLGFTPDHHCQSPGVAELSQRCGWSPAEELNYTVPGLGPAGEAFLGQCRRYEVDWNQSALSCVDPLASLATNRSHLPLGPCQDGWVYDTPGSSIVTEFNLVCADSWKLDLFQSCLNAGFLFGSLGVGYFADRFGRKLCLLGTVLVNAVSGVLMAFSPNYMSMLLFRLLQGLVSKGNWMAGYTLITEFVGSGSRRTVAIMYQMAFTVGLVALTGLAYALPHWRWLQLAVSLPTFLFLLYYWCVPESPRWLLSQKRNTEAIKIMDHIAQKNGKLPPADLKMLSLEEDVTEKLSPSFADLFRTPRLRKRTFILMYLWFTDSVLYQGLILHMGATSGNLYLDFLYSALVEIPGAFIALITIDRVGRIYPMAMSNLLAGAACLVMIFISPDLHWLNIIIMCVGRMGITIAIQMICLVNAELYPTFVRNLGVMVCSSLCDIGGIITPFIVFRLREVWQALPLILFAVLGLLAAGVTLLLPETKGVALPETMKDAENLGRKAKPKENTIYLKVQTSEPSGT

ABCC2/MRP2 = biological target: T4, ABCC2/MRP2 (Homo sapiens, UniProt Q92887); assay: MRP2 vesicular transport: ATP-dependent CDCF uptake into inverted Sf9 membrane vesicles; format: biochemical; details: CDCF 5 µM, 37 °C, 10 min, Sf9 vesicles
T4 construct: made in house; host or cells: Sf9 insect cells (baculovirus)
T4 sequence (Q92887 whole entry): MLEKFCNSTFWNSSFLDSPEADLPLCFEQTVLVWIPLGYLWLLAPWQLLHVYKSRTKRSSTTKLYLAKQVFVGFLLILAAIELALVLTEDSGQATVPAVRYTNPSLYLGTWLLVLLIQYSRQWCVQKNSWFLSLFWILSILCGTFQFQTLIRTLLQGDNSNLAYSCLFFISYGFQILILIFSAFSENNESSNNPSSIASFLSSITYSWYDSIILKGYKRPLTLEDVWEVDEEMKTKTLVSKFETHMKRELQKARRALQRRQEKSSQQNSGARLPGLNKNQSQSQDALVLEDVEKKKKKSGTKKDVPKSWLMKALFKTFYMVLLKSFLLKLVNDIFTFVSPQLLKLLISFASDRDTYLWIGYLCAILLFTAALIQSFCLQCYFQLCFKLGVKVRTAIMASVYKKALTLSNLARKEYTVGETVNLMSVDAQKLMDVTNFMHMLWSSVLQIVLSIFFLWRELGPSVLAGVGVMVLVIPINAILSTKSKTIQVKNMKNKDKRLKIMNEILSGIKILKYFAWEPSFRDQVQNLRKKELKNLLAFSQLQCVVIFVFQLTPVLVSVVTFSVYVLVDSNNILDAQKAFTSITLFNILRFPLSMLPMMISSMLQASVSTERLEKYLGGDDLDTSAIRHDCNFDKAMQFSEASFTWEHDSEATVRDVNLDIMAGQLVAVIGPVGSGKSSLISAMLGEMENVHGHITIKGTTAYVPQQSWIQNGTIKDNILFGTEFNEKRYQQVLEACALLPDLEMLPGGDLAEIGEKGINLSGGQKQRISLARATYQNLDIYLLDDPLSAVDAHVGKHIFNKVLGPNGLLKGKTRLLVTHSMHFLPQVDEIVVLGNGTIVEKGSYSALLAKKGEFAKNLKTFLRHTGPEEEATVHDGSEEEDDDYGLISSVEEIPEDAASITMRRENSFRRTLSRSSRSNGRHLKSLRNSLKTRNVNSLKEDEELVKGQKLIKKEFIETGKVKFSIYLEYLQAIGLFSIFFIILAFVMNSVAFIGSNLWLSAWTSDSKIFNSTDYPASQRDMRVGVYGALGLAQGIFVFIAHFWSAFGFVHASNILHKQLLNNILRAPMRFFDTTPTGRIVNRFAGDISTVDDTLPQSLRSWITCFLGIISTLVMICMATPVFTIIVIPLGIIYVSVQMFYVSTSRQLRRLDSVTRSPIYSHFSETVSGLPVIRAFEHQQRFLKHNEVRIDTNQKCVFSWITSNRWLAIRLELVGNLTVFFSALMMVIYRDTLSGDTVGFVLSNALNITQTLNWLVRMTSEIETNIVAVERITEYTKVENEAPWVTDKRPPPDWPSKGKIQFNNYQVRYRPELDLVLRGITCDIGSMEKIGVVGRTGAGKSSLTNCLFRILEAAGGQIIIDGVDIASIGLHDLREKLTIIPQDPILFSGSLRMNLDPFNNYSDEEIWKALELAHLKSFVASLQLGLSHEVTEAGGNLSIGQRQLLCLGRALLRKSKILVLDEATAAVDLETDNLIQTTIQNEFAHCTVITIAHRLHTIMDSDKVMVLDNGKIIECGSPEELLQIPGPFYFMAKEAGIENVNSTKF

ABCB11/BSEP = biological target: T5, ABCB11/BSEP (Homo sapiens, UniProt O95342); assay: BSEP vesicular transport: ATP- and glyburide-sensitive taurocholate uptake into inverted HEK-293 membrane vesicles; format: biochemical; details: taurocholate 2 µM, 37 °C, 10 min, HEK-293 vesicles
T5 construct: purchased Solvo Biotechnology (Budapest, Hungary); host or cells: HEK-293 cells
T5 sequence (O95342 whole entry): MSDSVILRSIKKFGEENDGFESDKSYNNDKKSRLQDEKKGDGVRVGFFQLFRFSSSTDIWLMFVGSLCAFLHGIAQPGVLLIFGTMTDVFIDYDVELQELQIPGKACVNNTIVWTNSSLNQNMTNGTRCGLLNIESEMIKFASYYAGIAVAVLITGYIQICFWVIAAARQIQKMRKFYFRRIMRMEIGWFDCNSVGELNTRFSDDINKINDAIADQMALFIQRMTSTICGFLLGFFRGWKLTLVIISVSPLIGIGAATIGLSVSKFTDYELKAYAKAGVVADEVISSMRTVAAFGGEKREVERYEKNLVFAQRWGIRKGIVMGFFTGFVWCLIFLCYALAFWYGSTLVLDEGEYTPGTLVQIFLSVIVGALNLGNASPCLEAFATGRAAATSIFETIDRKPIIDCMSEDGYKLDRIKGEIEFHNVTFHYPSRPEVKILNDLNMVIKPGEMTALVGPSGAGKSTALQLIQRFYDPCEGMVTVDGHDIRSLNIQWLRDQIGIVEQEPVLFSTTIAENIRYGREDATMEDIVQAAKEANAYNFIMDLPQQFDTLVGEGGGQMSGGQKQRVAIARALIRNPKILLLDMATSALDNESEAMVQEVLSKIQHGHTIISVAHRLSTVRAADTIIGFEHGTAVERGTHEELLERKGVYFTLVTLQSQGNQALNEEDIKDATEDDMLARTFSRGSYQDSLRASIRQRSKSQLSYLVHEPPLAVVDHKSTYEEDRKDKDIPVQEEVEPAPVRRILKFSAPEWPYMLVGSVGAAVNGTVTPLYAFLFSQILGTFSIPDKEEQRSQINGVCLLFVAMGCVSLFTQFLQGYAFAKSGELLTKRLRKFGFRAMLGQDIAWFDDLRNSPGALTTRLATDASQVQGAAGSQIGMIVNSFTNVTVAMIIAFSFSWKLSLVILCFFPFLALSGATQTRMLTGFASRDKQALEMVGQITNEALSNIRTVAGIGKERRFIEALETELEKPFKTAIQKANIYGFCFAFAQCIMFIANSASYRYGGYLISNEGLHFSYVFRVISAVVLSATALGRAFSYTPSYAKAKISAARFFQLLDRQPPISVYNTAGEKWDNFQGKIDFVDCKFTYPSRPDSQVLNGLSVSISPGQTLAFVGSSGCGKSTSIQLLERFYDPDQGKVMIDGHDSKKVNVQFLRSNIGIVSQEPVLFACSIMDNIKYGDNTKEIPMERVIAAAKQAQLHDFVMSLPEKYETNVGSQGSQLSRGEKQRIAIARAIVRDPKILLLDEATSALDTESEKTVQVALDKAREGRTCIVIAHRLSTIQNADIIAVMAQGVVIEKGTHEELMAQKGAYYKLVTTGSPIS

ABCB1/Pgp = tested on: ABCB1/Pgp; design: method as in Telbisz et al., 2021; details: vesicular transporter assay, measured previously; ref Telbisz et al., 2021; cited from earlier work
ABCG2/BCRP = tested on: ABCG2/BCRP; design: method as in Telbisz et al., 2021; details: vesicular transporter assay, measured previously; ref Telbisz et al., 2021; cited from earlier work
ABCC3/MRP3 = biological target: T6, ABCC3/MRP3 (Homo sapiens, UniProt O15438); assay: MRP3 vesicular transport: ATP- and benzbromarone-sensitive CDCF uptake into inverted HEK-293 membrane vesicles; format: biochemical
T6 construct: purchased Solvo Biotechnology (Budapest, Hungary); host or cells: HEK-293 cells
T6 sequence (O15438 whole entry): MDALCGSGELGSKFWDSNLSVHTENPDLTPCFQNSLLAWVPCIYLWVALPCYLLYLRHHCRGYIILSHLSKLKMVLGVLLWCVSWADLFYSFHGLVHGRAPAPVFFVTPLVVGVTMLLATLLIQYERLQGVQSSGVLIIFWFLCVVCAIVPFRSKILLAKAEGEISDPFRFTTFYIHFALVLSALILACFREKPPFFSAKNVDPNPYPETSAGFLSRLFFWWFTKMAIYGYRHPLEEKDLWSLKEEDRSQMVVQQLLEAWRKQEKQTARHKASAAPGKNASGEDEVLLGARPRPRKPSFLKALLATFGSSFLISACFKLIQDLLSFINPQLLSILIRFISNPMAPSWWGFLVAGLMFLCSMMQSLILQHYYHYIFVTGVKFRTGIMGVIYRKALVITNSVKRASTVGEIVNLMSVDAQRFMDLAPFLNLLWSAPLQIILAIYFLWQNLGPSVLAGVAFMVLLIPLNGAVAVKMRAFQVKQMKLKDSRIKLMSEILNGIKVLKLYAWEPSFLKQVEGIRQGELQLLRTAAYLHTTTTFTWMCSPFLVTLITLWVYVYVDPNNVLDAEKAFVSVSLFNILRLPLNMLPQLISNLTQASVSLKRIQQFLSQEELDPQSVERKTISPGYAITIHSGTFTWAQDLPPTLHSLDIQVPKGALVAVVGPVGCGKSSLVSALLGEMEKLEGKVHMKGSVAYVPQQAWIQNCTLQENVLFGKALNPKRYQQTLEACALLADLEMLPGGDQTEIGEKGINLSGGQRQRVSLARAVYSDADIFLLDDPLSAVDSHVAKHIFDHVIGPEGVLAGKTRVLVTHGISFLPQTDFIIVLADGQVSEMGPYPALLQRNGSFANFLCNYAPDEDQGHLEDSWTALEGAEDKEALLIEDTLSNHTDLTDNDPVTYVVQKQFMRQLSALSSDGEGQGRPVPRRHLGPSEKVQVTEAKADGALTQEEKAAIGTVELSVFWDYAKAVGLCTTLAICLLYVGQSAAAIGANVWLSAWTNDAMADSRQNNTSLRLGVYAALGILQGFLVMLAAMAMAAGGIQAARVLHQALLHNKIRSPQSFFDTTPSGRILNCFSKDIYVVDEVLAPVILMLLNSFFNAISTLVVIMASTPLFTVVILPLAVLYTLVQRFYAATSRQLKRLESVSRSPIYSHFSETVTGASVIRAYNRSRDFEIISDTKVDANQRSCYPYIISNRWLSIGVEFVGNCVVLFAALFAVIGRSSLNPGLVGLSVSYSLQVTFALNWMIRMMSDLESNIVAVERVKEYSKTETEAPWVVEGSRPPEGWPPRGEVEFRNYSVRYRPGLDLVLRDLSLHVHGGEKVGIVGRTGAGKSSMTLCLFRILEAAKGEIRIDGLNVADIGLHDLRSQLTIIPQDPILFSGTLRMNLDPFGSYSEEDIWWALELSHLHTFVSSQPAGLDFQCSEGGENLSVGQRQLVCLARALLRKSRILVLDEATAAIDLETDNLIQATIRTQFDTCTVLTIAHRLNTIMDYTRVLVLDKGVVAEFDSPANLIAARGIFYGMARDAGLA

## CC(C)c1nc(CN(C)C(=O)N[C@H](C(=O)N[C@@H](Cc2ccccc2)C[C@H](O)[C@H](Cc2ccccc2)NC(=O)OCc2cncs2)C(C)C)cs1 [RIT, ritonavir]
ABCC4/MRP4
  ABCC4/MRP4 Type of effect: No effect
[1]
  peak plasma concentrations in vivo: 1 to 1.73 µM
MATE1/SLC47A1
  MATE1/SLC47A1 Type of effect: strong inhibitory action and inh
OCT1/SLC22A1; metformin 10 µM, 5 min, 37 °C, HEK-293 cells
  OCT1/SLC22A1 Type of effect: strong inhibitory effect and inh
OCT1/SLC22A1; metformin uptake
  concentration of strong inhibitory effect on OCT1: below 10 µM
ABCC2/MRP2
  ABCC2/MRP2 Type of effect: did not inhibit but rather increased the probe substrate transport at high concentrations; also recorded: Increase
ABCB11/BSEP
  ABCB11/BSEP Type of effect: strongly inhibited TC transport at low concentrations and inh
ABCB1/Pgp
  ABCB1/Pgp Type of effect: inh
ABCG2/BCRP
  ABCG2/BCRP type of effect: inh
ABCC3/MRP3; CDCF 5 µM, 37 °C, 10 min, HEK-293 vesicles
  ABCC3/MRP3 Type of effect: inh
ABCC3/MRP3; CDCF uptake
  concentration at which MRP3 transport is inhibited: lower than 10 µM
